Assay results as given in US4680411A, “Pyrano[2,3-g]indoles useful as anti-ulcerous, anti-inflammatory and antalgic agent” (Societe de Recherches Industrielles, priority 1980, dated 1987).

Columns and labels:
[1] = Clinic: treatment of ulcers in man; assay type: in vivo
[2] = Inhibition of ulcer provoked by aspirin; assay type: in vivo, male Wistar rats; settings: Rattus norvegicus; rats; 100 mg/kg IP at t=0 and again at t=18 h; aspirin 192 mg/kg per os; sacrificed at t=22 h; read-out: Aspirine induced ulcer % inhibition
Procedure: The experiment is carried out on male Wistar rats weighing 180 to 200 g.
At t=0 the rats are made to fast and a first administration of the product to be tested, at a dose of 100 mg/kg, is made IP. At t=18 hours, 2 ml of an ulcer-forming suspension with 192 mg of aspirin/kg are administered per os then a second IP administration of the product to be tested, at a dose of 100 mg/kg, is made.
At t=22 hours, the animals are sacrificed and the ulcers are marked as follows: small punctiform ulcers: mark 1 more extensive ulcers: mark 3 very extensive or very deep ulcers: mark 9
(§1) Table III hereinbelow deals with the LD50 and with the inhibition of the ulcers caused by aspirin, the inhibition of the oedema provoked by carragenine and cramping (the products to be tested being, in the latter two cases, administered by the IP route at a dose equal to one tenth of the LD50 IP).

[3] = Toxicity, LD50 (DL50) I.P.; settings: in vivo, ip
Source text: The pharmacological tests carried out particularly with regard to toxicity, the ulcers provoked by aspirin and serotonin, and the anti-inflammatory and antalgic effects, are summarised hereinafter. The methods used are recalled hereinafter.
as §1

[4] = Clinic: treatment of oedemas in man; assay type: in vivo
[5] = Inhibition of oedema provoked by carragenine (anti-inflammatory effect); assay type: in vivo; settings: IP, dose equal to one tenth of the LD50 IP
Source text: (§2) The techniques relative to the anti-inflammatory effects (oedema caused by carragenine) and antalgic effects (cramping) which were used are the conventional techniques described in the prior art.
as §1

[6] = Inhibition of cramping (antalgic effect); assay type: in vivo; settings: IP, dose equal to one tenth of the LD50 IP
Source text: as §2, §1

[7] = Inhibition of ulcer provoked by serotonin (Hashizume technique); assay type: in vivo, male Sprague-Dawley rats; settings: serotonin 60 mg/kg sub-cutaneous
Procedure: ULCER PROVOKED BY SEROTONIN The technique used is the one described by Hashizume, in Arch. Int. Pharmacodyn. 236, 96-108, (1978). The experiment is carried out on 3 batches of male Sprague-Dawley rats. Each batch includes 20 animals. The first batch constitutes the controls, the second is treated with Carbenoxolone, the third is treated with the product to be tested. The animals are made to fast 24 hours before the experiment. At t=0, the product to be tested is administered by the IP route to the third batch, 100 mg/kg of Carbenoxolone are administered per os to the second batch. At t=+10 mins., a sub-cutaneous injection is made of serotonin at 60 mg/kg in the three batches. At t=+250 mins., the animals are sacrificed. The stomachs are removed and spread out and the ulcers are marked as follows: small ulcer +=1 average ulcer ++=3 large ulcer +++=9 The results relative to the inhibition of the ulcers provoked by serotonin are given in Table IV hereinbelow with the doses of the products tested.

[8] = Clinic: treatment of pain in man; assay type: in vivo

SMILES | results in the treatment of ulcers [1] | inhibition in vivo at 100 mg/kg [2] [%] | LD50 ([3]; I.P.) [mg/kg] | results in the treatment of oedemas [4] | Carragheenine oedema % inhibition [5] [%] | Cramping % inhibition [6] [%] | other results
COc1cc2cc(C(=O)O)[nH]c2c2c1OCCC2=O [Example 19, 5-methoxy-9-oxo-7,8-dihydro-pyrano[2,3-g]indole-2-carboxylic acid] | excellent results | 49 | > 1000 |  |  |  | 
O=C(O)c1cc2cc(Cl)c3c(c2[nH]1)CCCO3 [Example 5, 5-chloro-7,8,9-trihydro-pyrano[2,3-g]indole-2-carboxylic acid] |  | 28 | 300 | excellent results | 30 | 35 | 
COc1cc2cc[nH]c2c2c1OCCC2=NO [Example 23] | excellent results | 40 |  |  | 52 | 51 | Serotonine ulcer % inhibition ([7]; 92 mg/kg IP): 52%; DLo [3]: > 800 mg/kg
CN(C)Cc1c[nH]c2c3c(ccc12)OCCC3 [Example 14, 3-(7,8,9-trihydro-pyrano[2,3-g]indolyl)-N,N-dimethylmethylamine] | excellent results | 47.5 |  |  | 22 | 67 | LD50 [3]: 180 mg/kg
COc1cc2cc(C(=O)O)[nH]c2c2c1OCCC2 [Example 6, 5-methoxy-7,8,9-trihydro-pyrano[2,3-g]indole-2-carboxylic acid] |  | 23 | > 800 |  |  | 66 | results in the treatment of pain [8]: excellent results
Clc1cc2cc[nH]c2c2c1OCCC2 [Example 8, 5-chloro-7,8,9-trihydro-pyrano[2,3-g]indole] | excellent results | 42.5 | 900 |  | 33 | 26 | Serotonine ulcer % inhibition ([7]; 45 mg/kg IP): 75%
COc1cc2cc[nH]c2c2c1OCCC2O (stereo not shown) [Example 24] |  |  | 1000 | excellent results | 40 | 60 | 
CC1(C)[C@@H](OC(=O)CCC(=O)O)CC[C@]2(C)[C@H]3C(=O)C=C4[C@@H]5C[C@@](C)(C(=O)O)CC[C@]5(C)CC[C@@]4(C)[C@]3(C)CC[C@@H]12 [Carbenoxolone, reference compound] |  |  |  |  |  |  | Serotonine ulcer % inhibition ([7]; Carbenoxolone 60 mg/kg IP as printed in table, method says 100 mg/kg per os): 64%
COc1cc2cc[nH]c2c2c1OCCC2 [Example 9, 5-methoxy-7,8,9-trihydro-pyrano[2,3-g]indole] |  | 51 | 650 | excellent results | 39 | 41 | 
c1cc2ccc3c(c2[nH]1)CCCO3 [Example 7, 7,8,9-trihydro-pyrano[2,3-g]indole] | excellent results | 46 | 750 |  |  | 14 | Serotonine ulcer % inhibition ([7]; 75 mg/kg IP): 64%
O=C(O)c1cc2ccc3c(c2[nH]1)CCCO3 [Example 4, 7,8,9-trihydro-pyrano[2,3-g]indole-2-carboxylic acid] |  | 11 | 600 | excellent results | 35 | 36 | 
COc1cc2cc[nH]c2c2c1OCCC2=O [Example 21, 5-methoxy-9-oxo-7,8-dihydro-pyrano[2,3-g]indole] | excellent results | 60 | 600 |  | 49 | 37 | Serotonine ulcer % inhibition ([7]; 60 mg/kg IP): 87%
